Numbers after ± are expanded uncertainties.
Test: molar heat capacity at saturation pressure
Details: Liquid

Compound | molar heat capacity (284.16 K) | molar heat capacity (286.66 K) | molar heat capacity (289.15 K) | molar heat capacity (291.66 K) | molar heat capacity (294.15 K) | molar heat capacity (296.65 K) | molar heat capacity (298.15 K) | molar heat capacity (299.16 K) | molar heat capacity (301.65 K) | molar heat capacity (304.16 K) | molar heat capacity (308.56 K) | molar heat capacity (309.15 K) | molar heat capacity (311.66 K) | molar heat capacity (314.15 K) | molar heat capacity (316.65 K) | molar heat capacity (319.16 K) | molar heat capacity (321.65 K) | molar heat capacity (324.16 K) | molar heat capacity (326.65 K) | molar heat capacity (329.15 K) | other results
ClCCCl [1,2-dichloroethane] | 128.02 ± 0.99 J/K/mol | 128.21 ± 0.99 J/K/mol | 128.39 ± 0.99 J/K/mol | 128.58 ± 1 J/K/mol | 128.75 ± 1 J/K/mol | 128.94 ± 1 J/K/mol | 129.06 ± 1 J/K/mol | 129.11 ± 1 J/K/mol | 129.39 ± 1 J/K/mol | 129.47 ± 1 J/K/mol | 129.86 ± 1 J/K/mol | 129.86 ± 1 J/K/mol | 130.16 ± 1 J/K/mol | 130.4 ± 1 J/K/mol | 130.55 ± 1 J/K/mol | 130.88 ± 1 J/K/mol | 131.09 ± 1 J/K/mol | 131.2 ± 1 J/K/mol | 131.56 ± 1 J/K/mol | 131.87 ± 1 J/K/mol | molar heat capacity (331.66 K): 132.06 ± 1 J/K/mol; molar heat capacity (334.15 K): 132.24 ± 1 J/K/mol; molar heat capacity (336.66 K): 132.59 ± 1 J/K/mol; molar heat capacity (339.16 K): 132.82 ± 1 J/K/mol; molar heat capacity (341.65 K): 132.96 ± 1 J/K/mol; molar heat capacity (344.16 K): 133.32 ± 1 J/K/mol; molar heat capacity (346.65 K): 133.59 ± 1 J/K/mol; molar heat capacity (349.15 K): 133.83 ± 1 J/K/mol; molar heat capacity (351.66 K): 134.22 ± 1 J/K/mol; molar heat capacity (353.14 K): 134.46 ± 1 J/K/mol
ClCCCCl [1,3-dichloropropane] | 154.94 ± 1.2 J/K/mol | 155.4 ± 1.2 J/K/mol | 155.76 ± 1.2 J/K/mol | 156.11 ± 1.2 J/K/mol | 156.39 ± 1.2 J/K/mol | 156.76 ± 1.2 J/K/mol | 157.03 ± 1.2 J/K/mol | 157.2 ± 1.2 J/K/mol | 157.65 ± 1.2 J/K/mol | 157.89 ± 1.2 J/K/mol | 158.63 ± 1.2 J/K/mol | 158.67 ± 1.2 J/K/mol | 159.23 ± 1.2 J/K/mol | 159.54 ± 1.2 J/K/mol | 159.89 ± 1.2 J/K/mol | 160.47 ± 1.2 J/K/mol | 160.93 ± 1.2 J/K/mol | 161.01 ± 1.2 J/K/mol | 161.59 ± 1.2 J/K/mol | 162.11 ± 1.3 J/K/mol | molar heat capacity (331.66 K): 162.48 ± 1.3 J/K/mol; molar heat capacity (334.15 K): 162.96 ± 1.3 J/K/mol; molar heat capacity (336.66 K): 163.33 ± 1.3 J/K/mol; molar heat capacity (339.16 K): 163.82 ± 1.3 J/K/mol; molar heat capacity (341.65 K): 164.1 ± 1.3 J/K/mol; molar heat capacity (344.16 K): 164.44 ± 1.3 J/K/mol; molar heat capacity (346.65 K): 165.1 ± 1.3 J/K/mol; molar heat capacity (349.15 K): 165.38 ± 1.3 J/K/mol; molar heat capacity (351.66 K): 165.81 ± 1.3 J/K/mol; molar heat capacity (353.14 K): 166.22 ± 1.3 J/K/mol
ClCCCCCl [1,4-dichlorobutane] | 181.25 ± 1.4 J/K/mol | 181.71 ± 1.4 J/K/mol | 182.15 ± 1.4 J/K/mol | 182.62 ± 1.4 J/K/mol | 182.99 ± 1.4 J/K/mol | 183.49 ± 1.4 J/K/mol | 183.76 ± 1.4 J/K/mol | 183.89 ± 1.4 J/K/mol | 184.47 ± 1.4 J/K/mol | 184.8 ± 1.4 J/K/mol | 185.71 ± 1.4 J/K/mol | 185.83 ± 1.4 J/K/mol | 186.41 ± 1.4 J/K/mol | 186.88 ± 1.4 J/K/mol | 187.38 ± 1.4 J/K/mol | 187.89 ± 1.5 J/K/mol | 188.52 ± 1.5 J/K/mol | 188.85 ± 1.5 J/K/mol | 189.48 ± 1.5 J/K/mol | 190.01 ± 1.5 J/K/mol | molar heat capacity (331.66 K): 190.54 ± 1.5 J/K/mol; molar heat capacity (334.15 K): 190.99 ± 1.5 J/K/mol; molar heat capacity (336.66 K): 191.48 ± 1.5 J/K/mol; molar heat capacity (339.16 K): 192 ± 1.5 J/K/mol; molar heat capacity (341.65 K): 192.36 ± 1.5 J/K/mol; molar heat capacity (344.16 K): 193.05 ± 1.5 J/K/mol; molar heat capacity (346.65 K): 193.63 ± 1.5 J/K/mol; molar heat capacity (349.15 K): 194 ± 1.5 J/K/mol; molar heat capacity (351.66 K): 194.7 ± 1.5 J/K/mol; molar heat capacity (353.14 K): 195.12 ± 1.5 J/K/mol
ClCCCCCCl [1,5-dichloropentane] | 209.5 ± 1.6 J/K/mol | 210.04 ± 1.6 J/K/mol | 210.65 ± 1.6 J/K/mol | 211.2 ± 1.6 J/K/mol | 211.7 ± 1.6 J/K/mol | 212.19 ± 1.6 J/K/mol | 212.63 ± 1.6 J/K/mol | 212.96 ± 1.6 J/K/mol | 213.55 ± 1.6 J/K/mol | 214.12 ± 1.7 J/K/mol | 215.36 ± 1.7 J/K/mol | 215.26 ± 1.7 J/K/mol | 215.96 ± 1.7 J/K/mol | 216.61 ± 1.7 J/K/mol | 217.17 ± 1.7 J/K/mol | 217.92 ± 1.7 J/K/mol | 218.56 ± 1.7 J/K/mol | 219 ± 1.7 J/K/mol | 219.91 ± 1.7 J/K/mol | 220.61 ± 1.7 J/K/mol | molar heat capacity (331.66 K): 221.16 ± 1.7 J/K/mol; molar heat capacity (334.15 K): 221.76 ± 1.7 J/K/mol; molar heat capacity (336.66 K): 222.43 ± 1.7 J/K/mol; molar heat capacity (339.16 K): 223.1 ± 1.7 J/K/mol; molar heat capacity (341.65 K): 223.58 ± 1.7 J/K/mol; molar heat capacity (344.16 K): 224.7 ± 1.7 J/K/mol; molar heat capacity (346.65 K): 225.01 ± 1.7 J/K/mol; molar heat capacity (349.15 K): 225.75 ± 1.8 J/K/mol; molar heat capacity (351.66 K): 226.41 ± 1.8 J/K/mol; molar heat capacity (353.14 K): 227.13 ± 1.8 J/K/mol
ClCCCCCCCl [1,6-dichlorohexane] | 236.57 ± 1.8 J/K/mol | 237.13 ± 1.8 J/K/mol | 237.89 ± 1.8 J/K/mol | 238.51 ± 1.9 J/K/mol | 239.26 ± 1.9 J/K/mol | 239.89 ± 1.9 J/K/mol | 240.39 ± 1.9 J/K/mol | 240.68 ± 1.9 J/K/mol | 241.35 ± 1.9 J/K/mol | 242 ± 1.9 J/K/mol | 243 ± 1.9 J/K/mol | 243.48 ± 1.9 J/K/mol | 244.27 ± 1.9 J/K/mol | 245.06 ± 1.9 J/K/mol | 245.79 ± 1.9 J/K/mol | 246.57 ± 1.9 J/K/mol | 247.24 ± 1.9 J/K/mol | 247.78 ± 1.9 J/K/mol | 248.95 ± 1.9 J/K/mol | 249.58 ± 1.9 J/K/mol | molar heat capacity (331.66 K): 250.36 ± 1.9 J/K/mol; molar heat capacity (334.15 K): 251.24 ± 1.9 J/K/mol; molar heat capacity (336.66 K): 252 ± 1.9 J/K/mol; molar heat capacity (339.16 K): 252.72 ± 2 J/K/mol; molar heat capacity (341.65 K): 253.7 ± 2 J/K/mol; molar heat capacity (344.16 K): 254.49 ± 2 J/K/mol; molar heat capacity (346.65 K): 255.12 ± 2 J/K/mol; molar heat capacity (349.15 K): 255.75 ± 2 J/K/mol; molar heat capacity (351.66 K): 257 ± 2 J/K/mol; molar heat capacity (353.14 K): 257.47 ± 2 J/K/mol
CCCCO [butan-1-ol] | – | – | – | – | – | – | – | – | – | – | – | – | – | – | – | – | – | – | – | – | molar heat capacity (303.15 K): 181.16 ± 1.4 J/K/mol; molar heat capacity (313.15 K): 188.39 ± 1.5 J/K/mol; molar heat capacity (323.15 K): 196.66 ± 1.5 J/K/mol; molar heat capacity (333.15 K): 205.33 ± 1.6 J/K/mol; molar heat capacity (343.15 K): 214.22 ± 1.7 J/K/mol
Cc1ccccc1 [toluene] | – | – | – | – | – | – | – | – | – | – | – | – | – | – | – | – | – | – | – | – | molar heat capacity (283.15 K): 152.85 ± 1.2 J/K/mol; molar heat capacity (293.15 K): 155.56 ± 1.2 J/K/mol; molar heat capacity (303.15 K): 158.38 ± 1.2 J/K/mol; molar heat capacity (313.15 K): 161.47 ± 1.2 J/K/mol; molar heat capacity (323.15 K): 164.51 ± 1.3 J/K/mol; molar heat capacity (333.15 K): 167.63 ± 1.3 J/K/mol; molar heat capacity (343.15 K): 170.85 ± 1.3 J/K/mol
O [water] | – | – | – | – | – | – | – | – | – | – | – | – | – | – | – | – | – | – | – | – | molar heat capacity (283.15 K): 75.47 ± 0.58 J/K/mol; molar heat capacity (293.15 K): 75.29 ± 0.58 J/K/mol; molar heat capacity (303.15 K): 75.29 ± 0.58 J/K/mol; molar heat capacity (313.15 K): 75.34 ± 0.58 J/K/mol; molar heat capacity (323.15 K): 75.32 ± 0.58 J/K/mol; molar heat capacity (333.15 K): 75.33 ± 0.58 J/K/mol; molar heat capacity (343.15 K): 75.38 ± 0.58 J/K/mol

From the NIST ThermoML archive (doi:10.1021/je020042y)
